These results are taken from US8999956B2, “N-[(het)arylalkyl)] pyrazole(thio)carboxamides and their heterosubstituted analogues” (Bayer Intellectual Property GmbH, priority 2010, dated 2015).

Usually logP stands for the decadic logarithm of the partition coefficient of the neutral form, usually between octanol and water. The low end stands for lower lipophilicity, the high end for higher lipophilicity.

Where two headings read alike, the source gives them in different places.

One series concerns Phakopsora pachyrhizi. Briefly: In vivo protective test on Phakopsora pachyrhizi (soybeans). As to conditions: Table N, 250 ppm of active ingredient, evaluated 11 days after inoculation.
Series [1] has as its system aflatoxines produced by Aspergillus parasiticus. Briefly: microbe, parasite or virus in culture. The class given is cell-based.
The test system of another series is Alternaria solani. Briefly: In vivo preventive test on Alternaria solani (tomato). As to conditions: 500 ppm of active ingredient, evaluated 7 days after inoculation. In short, it runs like this: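 Preventive set-up: Alternaria solani spores, as aqueous suspension, applied to young plants one day after spraying. Spray contained active compound formulated with N,N-dimethylformamide and emulsifier, water-diluted to the desired application rate.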

The next series has as its system Pyrenophora teres. Briefly: In vivo preventive test on Pyrenophora teres (barley). Conditions: 500 ppm of active ingredient, evaluated 7-9 days after inoculation. An outline of the steps: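 Preventive test: young barley plants received a water-diluted spray of compound formulated with DMF solvent plus alkylaryl polyglycol ether emulsifier, at the stated rate. Inoculation with an aqueous spore suspension of Pyrenophora teres followed one day after spraying.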

Another series concerns Uromyces appendiculatus. Briefly: In vivo preventive test on Uromyces appendiculatus (beans). As to conditions: 100 ppm of active ingredient, evaluated 10 days after inoculation. An outline of the steps: (§1)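 Young plants sprayed preventively at the stated application rate with compound dissolved in acetone/N,N-dimethylacetamide plus alkylaryl polyglycol ether emulsifier and diluted with water to the desired concentration.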

The next series deals with Sphaerotheca fuliginea. Briefly: In vivo preventive test on Sphaerotheca fuliginea (cucumber). Conditions: 500 ppm of active ingredient, evaluated 7 days after inoculation. An outline of the steps:
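Young cucumber plants sprayed with compound (in DMF with alkylarylpolyglycolether emulsifier, diluted in water) at the stated application rate. Inoculated one day later with aqueous Sphaerotheca fuliginea spore suspension. Plants then held in greenhouse at approximately 23° C and approximately 70% relative humidity.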

For another series, the system named is Puccinia triticina. Briefly: In vivo preventive test on Puccinia triticina (wheat). Conditions: Table K, 500 ppm of active ingredient, evaluated 8 days after inoculation.
In another series the test system is Septoria tritici. Description: In vivo preventive test on Septoria tritici (wheat). Conditions: 500 ppm of active ingredient, evaluated 21 days after inoculation. An outline of the steps: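 Compound formulated in N,N-dimethylacetamide with alkylaryl polyglycol ether emulsifier and diluted in water to the stated rate. Young wheat plants sprayed preventively; after the deposit dried, they were inoculated with a Septoria tritici spore suspension.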

Another series relates to Venturia inaequalis. Description: In vivo preventive test on Venturia inaequalis (apple scab). As to conditions: 100 ppm of active ingredient, evaluated 10 days after inoculation. In short, it runs like this: as §1
A short description of series [2]: log P by HPLC on reversed-phase column (EEC Directive 79/831 Annex V.A8). The class given is physicochemical. The procedure:
In table 1, the log P values were determined in accordance with EEC Directive 79/831 Annex V.A8 by HPLC (High Performance Liquid Chromatography) on a reversed-phase column (C18), using the method described below: Temperature: 40° C.; […]

The test system of another series is Aspergillus parasiticus. Description: microbe, parasite or virus in culture. The class given is cell-based.
The test system of a further series is Fusarium graminearum. Conditions: in vivo.
In series [3] the test system is Blumeria graminis fsp. hordei. Briefly: In vivo preventive test on Blumeria graminis (barley). As to conditions: 500 ppm of active ingredient, evaluated 7 days after inoculation. An outline of the steps:
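Active compound taken up in N,N-dimethylacetamide with alkylaryl polyglycol ether emulsifier, then diluted in water to the desired concentration. Young barley plants sprayed at the stated application rate; once the coating had dried, plants were dusted with Blumeria graminis f. sp. hordei spores.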

A further series concerns Botrytis cinerea. Description: In vivo preventive test on Botrytis cinerea (beans). In short, it runs like this: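 Young bean plants sprayed preventively with compound in acetone/dimethylacetamide/emulsifier diluted in water; after drying, each leaf inoculated with 2 agar pieces bearing Botrytis cinerea. Kept dark at 20° C, 100% humidity; lesion size scored at 2 days as % efficacy (0% = untreated, 100% = no disease).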

A further series deals with Leptosphaeria nodorum. Description: In vivo preventive test on Leptosphaeria nodorum (wheat). As to conditions: 500 ppm of active ingredient, evaluated 7-9 days after inoculation. In short, it runs like this:
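Plants were inoculated with aqueous L. nodorum spores one day after a protective spray. The spray contained the compound at the stated rate, as a water-diluted concentrate in N,N-dimethylacetamide plus alkylaryl polyglycol ether emulsifier.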

For the molecule `CC(CCc1ccccc1C(F)(F)F)N(C(=O)c1c(C(F)F)nn(C)c1F)C1CC1` (stereo not drawn) [Example 221], the Efficacy was 80% in the series on Phakopsora pachyrhizi; 100% in the series with Alternaria solani; 95% with Pyrenophora teres; 100% with Uromyces appendiculatus; 100% in the series with Sphaerotheca fuliginea; 100% in the series with Puccinia triticina. The Efficacy (in the series on Septoria tritici; in the series on Venturia inaequalis; in the series on Fusarium graminearum; in series [3]) was 100% in each case. Further, in [1], the “% Inhibition of Aflatoxin at 50 μM” value is recorded as 100%. Also, in series [2], the logP is listed as 4.09. For the same molecule, the “% Inhibition of fungal growth at 50 μM” value in the series with Aspergillus parasiticus is 100%.
In the case of `Cn1nc(C(F)F)c(C(=O)N(C2CC2)C2CCCCC2Oc2ccccc2)c1F` (stereo not drawn) [Example 244], the Efficacy was 98% in the series with Phakopsora pachyrhizi; 100% in the series on Alternaria solani; 95% in the series with Pyrenophora teres; 100% in the series on Uromyces appendiculatus; 100% with Sphaerotheca fuliginea; 100% with Puccinia triticina. Besides, the Efficacy is given as 100% in the series on Septoria tritici; “at least 85%” with Botrytis cinerea (500 ppm of active ingredient, lesion size 2 days after inoculation); 88% in the series on Botrytis cinerea (Table L4, dose 500 ppm, comparison with des-fluoro analogue); 88% in the series on Botrytis cinerea (Table L, 500 ppm of active ingredient, lesion size 2 days after inoculation); 95% in the series with Leptosphaeria nodorum; 100% in the series with Venturia inaequalis. The Efficacy (in the series on Fusarium graminearum; in [3]) was 100% throughout. For the same molecule, in series [1] (50 µM), the “% Inhibition of Aflatoxin at 50 μM” value was found to be 99%. For the same molecule, the logP in [2] was found to be 3.89. The “% Inhibition of fungal growth at 50 μM” value in the series on Aspergillus parasiticus (50 µM) is 82%.
